# Tests used:
# [1] = Pharmacokinetic parameters following intravenous administration to rats; format: in vivo, male Wistar rats; settings: rat, 0.3 mg/kg intravenous; for MRT / half-life: male, Wistar, plasma; for MRT: read-out: Mean residence time; for half-life: read-out: Terminal half-life (converted)
# Description: The pharmacokinetic parameters of the compounds of the formula (I) according to the invention are determined in male Wistar rats. The administration volume is 5 ml/kg. Intravenous administration is by means of a species-specific plasma/DMSO formulation (99/1). The taking of blood from rats is simplified by inserting a silicone catheter into the right Vena jugularis externa prior to substance administration. The surgical intervention takes place one day prior to the experiment with isofluran anesthesia and administration of an analgetic (atropine/rimadyl (3/1) 0.1 ml s.c.). Substance administration is as an i.v. bolus. Removal of blood from the rats is after 0.033, 0.083, 0.17, 0.5, 1, 2, 3, 4, 6, 8, 24 and 27 hours. The blood is removed into heparinized tubes. The blood plasma is then obtained by centrifugation; if required, it can be stored at −20° C. until further processing.
# An internal standard (ZK 228859) is added to the samples of the compounds of the formula (I) according to the invention, calibration samples and QCs, and the protein is precipitated using excess acetonitrile. After addition of an ammonium acetate buffer (0.01 M, pH 6.8) and subsequent vortexing, the mixture is centrifuged at 1000 g and the supernatant is examined by LC-MS/MS (API 4000, AB Sciex). Chromatographic separation is carried out on an Agilent 1100-HPLC. The injection volume is 20 μl. The separation column used is a Phenomenex Gemini 5μ C18 110A 50×3 mm, adjusted to a temperature of 40° C. A binary mobile phase gradient at 500 μl/min is used (A: 0.01M ammonium acetate buffer pH 6.8, B: 0.1% formic acid in acetonitrile): 0 min (90% A), 1 min (90% A), 3 min (10% A), 4 min (10% A), 4.50 min (90% A), 6 min (90% A). The temperature of the Turbo V ion source is 400° C. The following MS instrument parameters are used: curtain gas 15 units, ion spray voltage 4.8 kV, gas 1 50 units, gas 2 40 units, CAD gas 8 units. The substances are quantified by peak heights or areas using extracted ion chromatograms of specific MRM experiments.
# The plasma concentration/time plots determined are used to calculate the pharmacokinetic parameters such as AUC, Cmax, t1/2 (terminal half life), MRT (mean residence time) and CL (clearance), using the validated pharmacokinetic calculation program KinEx (Vers.3).
# Since the substance quantification is performed in plasma, it is necessary to determine the blood/plasma distribution of the substance in order to be able to adjust the pharmacokinetic parameters correspondingly. For this purpose, a defined amount of substance is incubated in heparinized whole blood of the species in question in a rocking roller mixer for 20 min. After centrifugation at 1000 g, the plasma concentration is measured (see above) and determined by calculating the quotient of the cblood/cplasma values.
# Following intravenous administration of 0.3 mg/kg of representative compounds according to the invention to rats, the data listed in Table 3 were obtained: […]
# rabbit aorta rings = assay: Vasorelaxant action in vitro (phenylephrine-contracted rabbit aorta rings); settings: Oryctolagus cuniculus, phenylephrine contraction, 0.1% DMSO, read-out: IC50 (concentration needed to reduce the phenylephrine contraction by 50%)
# Description: Rabbits are stunned by a blow to the neck and exsanguinated. The aorta is removed, freed from adhering tissue and divided into rings of a width of 1.5 mm. The rings are placed individually under an initial tension in 5 ml organ baths with Krebs-Henseleit solution which is at 37° C., is gassed with carbogen and has the following composition (in each case mM): sodium chloride 119; potassium chloride: 4.8; calcium chloride dihydrate: 1; magnesium sulfate heptahydrate: 1.4; potassium dihydrogenphosphate: 1.2; sodium bicarbonate: 25; glucose: 10. The contractile force is determined with Statham UC2 cells, amplified and digitalized using A/D transducers (DAS 1802 HC, Keithley Instruments Munich), and recorded in parallel on linear recorders. To obtain a contraction, phenylephrine is added to the bath cumulatively in increasing concentration. After several control cycles, the substance to be investigated is added in each further run in increasing dosage in each case, and the height of the contraction achieved is compared with the height of the contraction reached in the last preceding run. This is used to calculate the concentration needed to reduce the magnitude of the control value by 50% (IC50 value). The standard administration volume is 5 μl; the DMSO content in the bath solution corresponds to 0.1%.
# [2] = tested on: recombinant guanylate cyclase reporter cell line; assay: Effect on a recombinant guanylate cyclase reporter cell line; format: cell-based
# Description: The cellular activity of the compounds according to the invention is determined using a recombinant guanylate cyclase reporter cell line, as described in F. Wunder et al., Anal. Biochem. 339, 104-112 (2005).
SMILES,MRT [1] [h],half-life [1] [h],CLblood [1] [mL/min/kg],IC50 (rabbit aorta rings) [nM],MEC (minimum effective concentration) [2] [µM]
"CC1(C)C(=O)Nc2nc(-c3nc(Cc4c(F)ccc(F)c4F)n4cc(Cl)ccc34)nnc21 [Example 11, 3-[6-Chloro-3-(2,3,6-trifluorobenzyl)imidazo[1,5-a]pyridin-1-yl]-7,7-dimethyl-5,7-dihydro-6H-pyrrolo[2,3-e][1,2,4]triazin-6-one]",9.4,7.2,0.5,30,0.03
"CC1(C)C(=O)Nc2nc(-c3nc(Cc4ccccc4F)n4ncccc34)nc(I)c21 [Example 1, 2-[7-(2-Fluorobenzyl)imidazo[1,5-b]pyridazin-5-yl]-4-iodo-5,5-dimethyl-5,7-dihydro-6H-pyrrolo[2,3-d]pyrimidin-6-one]",–,–,–,–,0.1
"CC1(C)C(=O)Nc2nc(-c3nc(Cc4c(F)ccc(F)c4F)n4cc(Cl)ccc34)ncc21 [Example 7, 2-[6-Chloro-3-(2,3,6-trifluorobenzyl)imidazo[1,5-a]pyridin-1-yl]-5,5-dimethyl-5,7-dihydro-6H-pyrrolo[2,3-d]pyrimidin-6-one]",–,–,–,–,0.01

# The next lines start with results.
MRT [1] [h],half-life [1] [h],CLblood [1] [mL/min/kg],IC50 (rabbit aorta rings) [nM],SMILES,MEC (minimum effective concentration) [2] [µM]
4.6,5.2,2.67,276,"CC1(C)C(=O)Nc2nc(-c3nc(CCC(F)(F)C(F)(F)F)n4cc(F)ccc34)nnc21 [Example 12, 3-[6-Fluoro-3-(3,3,4,4,4-pentafluorobutyl)imidazo[1,5-a]pyridin-1-yl]-7,7-dimethyl-5,7-dihydro-6H-pyrrolo[2,3-e][1,2,4]triazin-6-one]",1.0
–,–,–,72,"CC1(C)C(=O)Nc2nc(-c3nc(Cc4ccccc4F)n4ncccc34)ncc21 [Example 3, 2-[7-(2-Fluorobenzyl)imidazo[1,5-b]pyridazin-5-yl]-5,5-dimethyl-5,7-dihydro-6H-pyrrolo[2,3-d]pyrimidin-6-one]",0.03
–,–,–,42,"CC1(C)C(=O)Nc2nc(-c3nc(Cc4ccccc4F)n4ncccc34)nnc21 [Example 4, 3-[7-(2-Fluorobenzyl)imidazo[1,5-b]pyridazin-5-yl]-7,7-dimethyl-5,7-dihydro-6H-pyrrolo[2,3-e][1,2,4]triazin-6-one]",0.03

# Reference: patent US20140171434A1, “SUBSTITUTED IMIDAZOPYRIDINES AND IMIDAZOPYRIDAZINES AND THE USE THEREOF” (BAYER PHARMA AKTIENGESSELLSCHAFT, priority 2011, published 2014)
